Source: article PMC3951269 (Nature, 2013)

Assays:
[1] = biological target: T1, CPTP (GLTPD1) (Homo sapiens, UniProt Q5TA50); experiment: FRET lipid transfer between POPC vesicles; format: biochemical; settings: 37 °C; labelled compound
T1 sequence (Q5TA50 1-214): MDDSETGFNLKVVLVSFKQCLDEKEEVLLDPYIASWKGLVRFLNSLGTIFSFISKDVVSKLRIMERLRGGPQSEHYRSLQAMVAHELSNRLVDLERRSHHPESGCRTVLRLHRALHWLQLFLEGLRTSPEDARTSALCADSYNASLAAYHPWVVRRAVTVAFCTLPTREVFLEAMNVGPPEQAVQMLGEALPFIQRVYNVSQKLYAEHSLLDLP

[2] = biological target: T1, CPTP (GLTPD1); experiment: X-ray crystal structure; format: binding; settings: sphingosine-in mode site as C1P

Row | SMILES | transfer rate [1] | X-ray crystal structure [2]
1 | CCCCCCCCCCCCC/C=C/[C@@H](O)[C@H](COP(=O)(O)O)NC(=O)CCCCCCCCC/C=C/c1c2ccccc2cc2ccccc12 [AV-C1P, anthrylvinyl-C1P] | ~ 4 C1P molecules/min/protein | –
2 | CCCCCCCCCCCC(=O)OC[C@H](COP(=O)(O)O)OC(=O)CCCCCCCCCCC [di12:0-PA] | – | PA occupies the same binding site
